Earlier results, collected in patent US20150132345A1, “NITRIC OXIDE-SEQUESTERING TOPICAL FORMULATIONS” (priority 2011, published 2015).

What was measured:
Settings in all cases: multiple 30 minutes treatments of 160 ppm nitric oxide
Pseudomonas aeruginosa = tested on: Pseudomonas aeruginosa
Staphylococcus aureus = tested on: Staphylococcus aureus
Escherichia coli = tested on: Escherichia coli

Structure (SMILES): [N]=O [nitric oxide]
- decrease in the bacterial load (Pseudomonas aeruginosa): > 5 log 10 colony forming unit per milliliter (CFU/ml)
- decrease in the bacterial load (Staphylococcus aureus): > 5 log 10 colony forming unit per milliliter (CFU/ml)
- decrease in the bacterial load (Escherichia coli): > 5 log 10 colony forming unit per milliliter (CFU/ml)
